Experimental data as given in US7858635B2 (priority 2005, dated 2010).

How the values were obtained:
M1 muscarinic receptor = molecular target: T1, M1 muscarinic receptor (Homo sapiens, UniProt P11229); experiment: Functional mobilization of intracellular calcium (FLIPR, Fluo-3), M1-CHO cells; type: cell-based; conditions: compound nos. 1-454; for Emax: 100% efficacy is the maximum response obtained with the Carbachol control, read-out: M1 Efficacy; for M1 Activity: M1-CHO cells, calcium mobilization
T1 construct: expressed in transfected cells; host or cells: CHO cells (M1-CHO, under zeocin and G418 selection)
T1 sequence (P11229 1-460): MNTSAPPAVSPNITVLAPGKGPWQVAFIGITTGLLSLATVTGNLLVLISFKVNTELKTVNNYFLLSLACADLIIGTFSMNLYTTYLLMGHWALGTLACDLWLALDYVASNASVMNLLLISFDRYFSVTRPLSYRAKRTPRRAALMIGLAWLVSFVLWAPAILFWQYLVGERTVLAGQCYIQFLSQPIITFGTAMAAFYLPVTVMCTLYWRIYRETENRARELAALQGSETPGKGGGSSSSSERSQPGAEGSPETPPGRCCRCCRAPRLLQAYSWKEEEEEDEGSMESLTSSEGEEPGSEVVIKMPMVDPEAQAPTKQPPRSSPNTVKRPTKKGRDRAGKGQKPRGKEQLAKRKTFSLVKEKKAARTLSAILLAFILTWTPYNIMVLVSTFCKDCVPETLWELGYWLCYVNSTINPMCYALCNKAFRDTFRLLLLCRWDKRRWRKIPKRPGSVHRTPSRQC
Outline: (§1)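 CHO lines stably carrying the muscarinic subtype, dye-loaded with Fluo-3 at 37° C for 60-90 min, receive test compound in 0.5% DMSO. Agonist effects are read directly; antagonist effects against carbachol at EC80 after 15 min pre-incubation.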

M4 muscarinic receptor = molecular target: T2, M4 muscarinic receptor (Homo sapiens, UniProt P08173); experiment: Functional mobilization of intracellular calcium (FLIPR, Fluo-3), M4-CHO cells; type: cell-based; conditions: compound nos. 1-454; for Emax: 100% efficacy is the maximum response obtained with the Carbachol control, read-out: M4 Efficacy; for M4 Activity: M4-CHO cells, calcium mobilization
T2 construct: expressed in transfected cells; host or cells: CHO cells (M4-CHO, under puromycin, zeocin and blasticidin selection)
T2 sequence (P08173 1-479): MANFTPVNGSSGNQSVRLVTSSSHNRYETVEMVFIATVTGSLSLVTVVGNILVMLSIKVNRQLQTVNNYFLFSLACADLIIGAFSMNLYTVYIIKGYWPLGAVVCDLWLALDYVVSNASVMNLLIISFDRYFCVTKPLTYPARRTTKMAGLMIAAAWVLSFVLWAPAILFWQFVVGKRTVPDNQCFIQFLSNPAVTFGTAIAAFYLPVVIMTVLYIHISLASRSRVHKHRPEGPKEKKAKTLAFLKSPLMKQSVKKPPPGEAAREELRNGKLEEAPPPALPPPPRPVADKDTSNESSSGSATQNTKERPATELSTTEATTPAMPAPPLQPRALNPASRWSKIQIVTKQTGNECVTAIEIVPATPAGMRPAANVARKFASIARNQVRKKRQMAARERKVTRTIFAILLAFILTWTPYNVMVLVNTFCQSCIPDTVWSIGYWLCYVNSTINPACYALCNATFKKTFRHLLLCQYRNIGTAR
Outline: as §1

With `Clc1ccc2c(c1)C1(CCO2)CCN(C2CCOCC2)CC1` [compound 178] the Emax (M1 muscarinic receptor) was > 85%, the “M1 Activity” value (M1 muscarinic receptor) was “++ (activity was measured to be between 0.7 μM and 3.0 μM)” and the Emax (M4 muscarinic receptor) was 55 to 70%. The “M4 Activity” value (M4 muscarinic receptor) was “+ (activity was measured to be greater than or equal to 4.0 μM)”.
For `CCOC(=O)N1C2CCC1CC(N1CCC3(CC1)CN(C(=O)C1CCC1)c1ccc(F)cc13)C2` (centres unmarked) [compound 179], the Emax (M1 muscarinic receptor) was > 85%, the “M1 Activity” value (M1 muscarinic receptor) was “++ (activity was measured to be between 0.7 μM and 3.0 μM)” and the Emax (M4 muscarinic receptor) was 55 to 70%. For the same compound, the “M4 Activity” value (M4 muscarinic receptor) was “+ (activity was measured to be greater than or equal to 4.0 μM)”.
For `CC(=O)NC1CC2(CCN(CC3CC4C=CC3C4)CC2)c2ccccc21` (centres unmarked) [compound 180], the Emax (M1 muscarinic receptor) was 65 to 85%, the “M1 Activity” value (M1 muscarinic receptor) was “+++ (activity was measured to be less than or equal to 0.7 μM)” and the Emax (M4 muscarinic receptor) was 55 to 70%. The “M4 Activity” value (M4 muscarinic receptor) was “+++ (activity was measured to be less than or equal to 0.1 μM)”.
`Clc1ccc2c(c1)C1(CCN([C@H]3C[C@@H]4CC[C@H]3C4)CC1)CO2` [compound 181] was tested, and the Emax (M1 muscarinic receptor) was 65 to 85%, the “M1 Activity” value (M1 muscarinic receptor) was “++ (activity was measured to be between 0.7 μM and 3.0 μM)” and the Emax (M4 muscarinic receptor) was 55 to 70%. The “M4 Activity” value (M4 muscarinic receptor) was “+ (activity was measured to be greater than or equal to 4.0 μM)”.
In the case of `COC(=O)N1CCC(CN2CCC3(CC2)C[C@H](NC(C)=O)c2ccccc23)CC1` [compound 182], the Emax (M1 muscarinic receptor) is reported as 65 to 85%, the “M1 Activity” value (M1 muscarinic receptor) is reported as “+ (activity was measured to be greater than or equal to 3.0 μM)” and the Emax (M4 muscarinic receptor) is reported as 55 to 70%. The “M4 Activity” value (M4 muscarinic receptor) was “+ (activity was measured to be greater than or equal to 4.0 μM)”.
In the case of `Fc1ccc2c(c1)C1(CCN(CC3CC4C=CC3C4)CC1)CN2` (centres unmarked) [compound 183], the Emax (M1 muscarinic receptor) is reported as 65 to 85%, the “M1 Activity” value (M1 muscarinic receptor) is reported as “++ (activity was measured to be between 0.7 μM and 3.0 μM)” and the Emax (M4 muscarinic receptor) is reported as 55 to 70%. The “M4 Activity” value (M4 muscarinic receptor) was “+ (activity was measured to be greater than or equal to 4.0 μM)”.
In the case of `CC(=O)N[C@H]1CC2(CCN(CC3CCCCC3)CC2)c2ccccc21` [compound 184], the Emax (M1 muscarinic receptor) is reported as > 85%, the “M1 Activity” value (M1 muscarinic receptor) is reported as “++ (activity was measured to be between 0.7 μM and 3.0 μM)” and the Emax (M4 muscarinic receptor) is reported as 55 to 70%. The “M4 Activity” value (M4 muscarinic receptor) was “+ (activity was measured to be greater than or equal to 4.0 μM)”.
With `O=C(OCC(F)F)N1C2CCC1CC(N1CCC3(CC1)COc1ccc(F)cc13)C2` (centres unmarked) [compound 186] the Emax (M1 muscarinic receptor) was > 85%, the “M1 Activity” value (M1 muscarinic receptor) was “+++ (activity was measured to be less than or equal to 0.7 μM)” and the Emax (M4 muscarinic receptor) was 55 to 70%. The “M4 Activity” value (M4 muscarinic receptor) was “+ (activity was measured to be greater than or equal to 4.0 μM)”.
For `CC(=O)N1CC2(CCN(CC3CCCC3)CC2)c2cc(F)ccc21` [compound 187], the Emax (M1 muscarinic receptor) was 65 to 85%, the “M1 Activity” value (M1 muscarinic receptor) was “++ (activity was measured to be between 0.7 μM and 3.0 μM)” and the Emax (M4 muscarinic receptor) was 55 to 70%. The “M4 Activity” value (M4 muscarinic receptor) was “+ (activity was measured to be greater than or equal to 4.0 μM)”.
For `CN(C)C(=O)N1CC2(CCN(C3CC4CCC(C3)N4C(=O)O[C@@H]3CCOC3)CC2)c2cc(F)ccc21` (some centres unmarked) [compound 188], the Emax (M1 muscarinic receptor) was < 65%, the “M1 Activity” value (M1 muscarinic receptor) was “+ (activity was measured to be greater than or equal to 3.0 μM)” and the Emax (M4 muscarinic receptor) was 55 to 70%. For the same compound, the “M4 Activity” value (M4 muscarinic receptor) was “+ (activity was measured to be greater than or equal to 4.0 μM)”.
In the case of `CCOC(=O)N1C2CCC1CC(N1CCC3(CC1)CN(C(=O)c1cc(C)nn1C(C)(C)C)c1ccc(F)cc13)C2` (centres unmarked) [compound 189], the Emax (M1 muscarinic receptor) is reported as 65 to 85%, the “M1 Activity” value (M1 muscarinic receptor) is reported as “+++ (activity was measured to be less than or equal to 0.7 μM)” and the Emax (M4 muscarinic receptor) is reported as 55 to 70%. For the same compound, the “M4 Activity” value (M4 muscarinic receptor) was “+ (activity was measured to be greater than or equal to 4.0 μM)”.
In the case of `CC(=O)N(C)[C@H]1CC2(CCN(C[C@H]3C[C@H]4CC[C@@H]3C4)CC2)c2ccccc21` [compound 190, N—((S)-1′-((1R,2S,4S)-bicyclo[2.2.1]heptan-2-ylmethyl)-2,3-dihydrospiro[indene-1,4′-piperidine]-3-yl)-N-methylacetamide], the Emax (M1 muscarinic receptor) is reported as > 85%, the “M1 Activity” value (M1 muscarinic receptor) is reported as “+ (activity was measured to be greater than or equal to 3.0 μM)” and the Emax (M4 muscarinic receptor) is reported as 55 to 70%. The “M4 Activity” value (M4 muscarinic receptor) was “+ (activity was measured to be greater than or equal to 4.0 μM)”.
In the case of `CCOC(=O)N1CCC(N2CCC3(CC2)C(=O)Nc2ccccc23)CC1` [compound 191], the Emax (M1 muscarinic receptor) is reported as 65 to 85%, the “M1 Activity” value (M1 muscarinic receptor) is reported as “+++ (activity was measured to be less than or equal to 0.7 μM)” and the Emax (M4 muscarinic receptor) is reported as 55 to 70%. For the same compound, the “M4 Activity” value (M4 muscarinic receptor) was “+ (activity was measured to be greater than or equal to 4.0 μM)”.
For `COC(=O)N1CC2(CCN(C3CC4CCC(C3)N4C(=O)O[C@@H]3CCOC3)CC2)c2cc(F)ccc21` (some centres unmarked) [compound 192], the Emax (M1 muscarinic receptor) was 65 to 85%, the “M1 Activity” value (M1 muscarinic receptor) was “+++ (activity was measured to be less than or equal to 0.7 μM)” and the Emax (M4 muscarinic receptor) was 55 to 70%. For the same compound, the “M4 Activity” value (M4 muscarinic receptor) was “+ (activity was measured to be greater than or equal to 4.0 μM)”.
In the case of `CCOC(=O)N1CCC(N2CCC3(CC2)CN(C(C)=O)c2ccc(-c4ccc(OC)cc4)cc23)CC1` [compound 193], the Emax (M1 muscarinic receptor) is reported as < 65%, the “M1 Activity” value (M1 muscarinic receptor) is reported as “+ (activity was measured to be greater than or equal to 3.0 μM)” and the Emax (M4 muscarinic receptor) is reported as < 55%. For the same compound, the “M4 Activity” value (M4 muscarinic receptor) was “+ (activity was measured to be greater than or equal to 4.0 μM)”.
`CCOC(=O)N1CCC(N2CCC3(CC2)CN(C(=O)CC(C)(C)C)c2ccc(F)cc23)CC1` [compound 194] was tested, and the Emax (M1 muscarinic receptor) was > 85%, the “M1 Activity” value (M1 muscarinic receptor) was “+++ (activity was measured to be less than or equal to 0.7 μM)” and the Emax (M4 muscarinic receptor) was 55 to 70%. For the same compound, the “M4 Activity” value (M4 muscarinic receptor) was “+ (activity was measured to be greater than or equal to 4.0 μM)”.
`COCCOC(=O)N1CC2(CCN(C3CC4CCC(C3)N4C(=O)OC3CCC3)CC2)c2cc(F)ccc21` (centres unmarked) [compound 195] was tested, and the Emax (M1 muscarinic receptor) was < 65%, the “M1 Activity” value (M1 muscarinic receptor) was “++ (activity was measured to be between 0.7 μM and 3.0 μM)” and the Emax (M4 muscarinic receptor) was < 55%. For the same compound, the “M4 Activity” value (M4 muscarinic receptor) was “+ (activity was measured to be greater than or equal to 4.0 μM)”.
`CC(=O)N[C@H]1CC2(CCN(C3CCCCC3)CC2)c2ccccc21` [compound 196] was tested, and the Emax (M1 muscarinic receptor) was 65 to 85%, the “M1 Activity” value (M1 muscarinic receptor) was “+++ (activity was measured to be less than or equal to 0.7 μM)” and the Emax (M4 muscarinic receptor) was < 55%. For the same compound, the “M4 Activity” value (M4 muscarinic receptor) was “+ (activity was measured to be greater than or equal to 4.0 μM)”.
With `CCOC(=O)N1C2CCC1CC(N1CCC3(CC1)CN(C(=O)Nc1ccc(F)cc1)c1ccc(F)cc13)C2` (centres unmarked) [compound 197] the Emax (M1 muscarinic receptor) was < 65%, the “M1 Activity” value (M1 muscarinic receptor) was “++ (activity was measured to be between 0.7 μM and 3.0 μM)” and the Emax (M4 muscarinic receptor) was < 55%. For the same compound, the “M4 Activity” value (M4 muscarinic receptor) was “+ (activity was measured to be greater than or equal to 4.0 μM)”.
With `O=C(O[C@@H]1CCOC1)N1CC2(CCN(C3CC4CCC(C3)N4C(=O)O[C@H]3CCOC3)CC2)c2cc(F)ccc21` (some centres unmarked) [compound 198] the Emax (M1 muscarinic receptor) was 65 to 85%, the “M1 Activity” value (M1 muscarinic receptor) was “++ (activity was measured to be between 0.7 μM and 3.0 μM)” and the Emax (M4 muscarinic receptor) was < 55%. The “M4 Activity” value (M4 muscarinic receptor) was “+ (activity was measured to be greater than or equal to 4.0 μM)”.
With `CCOC(=O)N1C2CCC1CC(N1CCC3(CC1)C(=O)Nc1ccccc13)C2` (centres unmarked) [compound 199] the Emax (M1 muscarinic receptor) was 65 to 85%, the “M1 Activity” value (M1 muscarinic receptor) was “++ (activity was measured to be between 0.7 μM and 3.0 μM)” and the Emax (M4 muscarinic receptor) was < 55%. The “M4 Activity” value (M4 muscarinic receptor) was “+ (activity was measured to be greater than or equal to 4.0 μM)”.
`CC=CCOC(=O)N1C2CCC1CC(N1CCC3(CC1)CN(C(=O)N(C)C)c1ccc(F)cc13)C2` (centres unmarked) [compound 200] was tested, and the Emax (M1 muscarinic receptor) was 65 to 85%, the “M1 Activity” value (M1 muscarinic receptor) was “++ (activity was measured to be between 0.7 μM and 3.0 μM)” and the Emax (M4 muscarinic receptor) was < 55%. The “M4 Activity” value (M4 muscarinic receptor) was “+ (activity was measured to be greater than or equal to 4.0 μM)”.
In the case of `CC(=O)N1CC2(CCN(CC3CCN(C(=O)OC(C)C)CC3)CC2)c2cc(F)ccc21` [compound 202], the Emax (M1 muscarinic receptor) is reported as 65 to 85%, the “M1 Activity” value (M1 muscarinic receptor) is reported as “++ (activity was measured to be between 0.7 μM and 3.0 μM)” and the Emax (M4 muscarinic receptor) is reported as < 55%. For the same compound, the “M4 Activity” value (M4 muscarinic receptor) was “+ (activity was measured to be greater than or equal to 4.0 μM)”.
